Measured values as given in the supplement of paper PMC10307832.

What was measured:
Test in all cases: relative viability (nuclei count vs DMSO), 5 days (fraction); higher = more cells survive
Ruxolitinib + Linsitinib = compound: N#CC[C@H](C1CCCC1)n1cc(-c2ncnc3[nH]ccc23)cn1 [Ruxolitinib] + C[C@]1(O)C[C@@H](c2nc(-c3ccc4ccc(-c5ccccc5)nc4c3)c3c(N)nccn32)C1 [Linsitinib] (partner 1 µM)
How it was run: (§1)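 Values are medians from duplicate plates. Each reflects relative viability, defined as the nuclei count of treated wells over that of vehicle wells. Lung cancer cell lines in 1536-well plates were pin-tool dosed one day after seeding with one drug alone or with a fixed anchor-drug dose plus five library-drug doses (not always all listed) in √10 steps, then fixed, stained and imaged at 4× after 5 days.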

Ruxolitinib + Crizotinib = compound: N#CC[C@H](C1CCCC1)n1cc(-c2ncnc3[nH]ccc23)cn1 [Ruxolitinib] + C[C@@H](Oc1cc(-c2cnn(C3CCNCC3)c2)cnc1N)c1c(Cl)ccc(F)c1Cl [Crizotinib] (partner 1 µM)
How it was run: as §1

VE-821 + Decitabine = compound: CS(=O)(=O)c1ccc(-c2cnc(N)c(C(=O)Nc3ccccc3)n2)cc1 [VE-821] + Nc1ncn([C@H]2C[C@H](O)[C@@H](CO)O2)c(=O)n1 [Decitabine] (partner 2 µM)
How it was run: as §1

Vismodegib + Olaparib = compound: CS(=O)(=O)c1ccc(C(=O)Nc2ccc(Cl)c(-c3ccccn3)c2)c(Cl)c1 [Vismodegib] + O=C(c1cc(Cc2n[nH]c(=O)c3ccccc23)ccc1F)N1CCN(C(=O)C2CC2)CC1 [Olaparib] (partner 8 µM)
How it was run: as §1

Row | Cell Line | relative viability (Ruxolitinib + Linsitinib; first compound 0.08 µM) | relative viability (Ruxolitinib + Linsitinib; first compound 0.253 µM) | relative viability (Ruxolitinib + Linsitinib; first compound 0.8 µM) | relative viability (Ruxolitinib + Linsitinib; first compound 2.53 µM) | relative viability (Ruxolitinib + Linsitinib; first compound 8 µM) | relative viability (Ruxolitinib + Crizotinib; first compound 0.08 µM) | relative viability (Ruxolitinib + Crizotinib; first compound 0.253 µM) | relative viability (Ruxolitinib + Crizotinib; first compound 0.8 µM) | relative viability (Ruxolitinib + Crizotinib; first compound 2.53 µM) | relative viability (Ruxolitinib + Crizotinib; first compound 8 µM) | relative viability (VE-821 + Decitabine; first compound 0.08 µM) | relative viability (VE-821 + Decitabine; first compound 0.253 µM) | relative viability (VE-821 + Decitabine; first compound 0.8 µM) | relative viability (VE-821 + Decitabine; first compound 2.53 µM) | relative viability (VE-821 + Decitabine; first compound 8 µM) | relative viability (Vismodegib + Olaparib; first compound 0.08 µM) | relative viability (Vismodegib + Olaparib; first compound 0.253 µM) | relative viability (Vismodegib + Olaparib; first compound 0.8 µM) | relative viability (Vismodegib + Olaparib; first compound 2.53 µM) | relative viability (Vismodegib + Olaparib; first compound 8 µM)
1 | 201T | 1.1 | 1.15 | 1.19 | 1.21 | 1.22 | 1.02 | 1.11 | 1.19 | 1.29 | 1.18 | 0.887 | 0.878 | 0.887 | 0.918 | 0.659 | 0.826 | 0.875 | 0.798 | 0.845 | 0.822
2 | A549 | 0.594 | 0.576 | 0.896 | 0.558 | 0.675 | 0.782 | 0.891 | 0.855 | 0.692 | 0.293 | 0.319 | 0.454 | 0.221 | 0.318 | 0.281 | 0.247 | 0.358 | 0.31 | 0.352 | 0.194
3 | A-427 | 1.14 | 1.11 | 1.13 | 0.961 | 0.922 | 0.843 | 1.07 | 0.867 | 0.66 | 0.789 | 0.592 | 0.53 | 0.587 | 0.572 | 0.442 | 0.743 | 0.804 | 0.642 | 0.675 | 0.786
4 | ABC-1 | 0.983 | 0.705 | 0.865 | 0.97 | 0.871 | 1.12 | 1.02 | 1.22 | 0.992 | 1.26 | 1.13 | 0.974 | 0.809 | 0.903 | 0.989 | 0.76 | 0.788 | 0.725 | 1.01 | 1.09
5 | BEN | 0.751 | 0.887 | 1.15 | 0.758 | 1.03 | 0.832 | 1.01 | 1.07 | 0.735 | 0.95 | 0.699 | 0.679 | 0.687 | 0.768 | 0.644 | 1.14 | 1.05 | 0.889 | 1.08 | 1.13
6 | CAL-12T | 0.819 | 0.744 | 0.853 | 0.614 | 0.7 | 0.914 | 0.586 | 0.81 | 0.481 | 0.576 |  |  |  |  |  | 0.81 | 0.691 | 0.411 | 0.757 | 0.713
7 | COR-L23 | 0.919 | 0.92 | 0.95 | 0.833 | 0.671 | 0.717 | 0.681 | 0.733 | 0.7 | 0.433 | 0.538 | 0.459 | 0.599 | 0.58 | 0.468 | 0.35 | 0.339 | 0.337 | 0.281 | 0.317
8 | COR-L 105 | 0.95 | 0.719 | 0.912 | 0.642 | 0.758 | 0.789 | 0.634 | 0.853 | 0.444 | 0.625 | 0.666 | 0.579 | 0.58 | 0.613 | 0.518 | 0.605 | 0.64 | 0.69 | 0.698 | 0.537
9 | Calu-6 | 0.94 | 0.923 | 1.01 |  | 0.882 | 0.797 | 0.676 | 1 | 0.711 | 0.399 |  |  |  |  |  | 0.589 | 0.558 | 0.562 | 0.434 | 0.587
10 | ChaGo-K-1 |  |  |  |  |  |  | 1.13 | 1.22 | 0.963 | 0.997 | 0.55 | 0.493 | 0.506 | 0.537 | 0.559 | 0.452 | 0.436 | 0.455 | 0.398 | 0.405
11 | EBC-1 | 0.831 | 1.1 | 1.06 | 0.783 | 0.823 | 0.191 |  | 0.21 | 0.204 | 0.202 |  |  |  |  |  | 0.662 | 0.674 | 0.751 | 0.69 | 0.74
12 | EKVX | 0.876 | 0.897 | 0.966 | 0.893 | 0.813 | 0.894 | 0.983 | 1.07 | 0.757 | 0.798 | 0.406 | 0.366 | 0.322 | 0.327 | 0.38 |  | 0.737 | 0.818 | 0.778 | 0.866
13 | EMC-BAC-2 | 0.799 | 0.822 | 0.87 | 0.744 | 0.66 | 0.801 | 0.782 | 0.85 | 0.68 | 0.445 | 1.07 | 0.961 | 0.996 | 0.969 | 0.826 | 0.523 | 0.488 | 0.487 | 0.472 | 0.526
14 | EPLC-272H | 1.26 | 1.12 | 1.31 | 1.19 | 1.25 | 0.925 | 0.945 | 1.2 | 0.729 | 0.863 | 0.395 | 0.359 | 0.404 | 0.408 | 0.345 | 0.839 | 0.69 | 0.674 | 0.783 | 0.837
15 | H3255 | 0.464 | 0.887 | 1.17 | 0.706 | 0.86 |  | 0.752 | 1.12 | 0.806 | 0.849 | 0.655 | 0.551 | 0.614 | 0.752 | 0.596 | 0.586 | 0.554 | 0.516 | 0.54 | 0.517
16 | HARA | 0.983 | 1.01 | 1.03 | 0.912 | 0.815 | 1.02 | 1.02 | 1.08 | 1.09 | 0.687 | 0.551 | 0.636 | 0.613 | 0.615 | 0.516 | 0.786 |  | 0.945 | 0.856 | 0.943
17 | HCC-15 | 0.855 | 0.849 | 0.855 | 0.842 | 0.737 | 0.774 | 0.839 | 0.883 | 0.794 | 0.693 | 0.74 | 0.726 | 0.69 | 0.954 | 0.766 | 0.652 | 0.709 | 0.718 | 0.737 | 0.608
18 | HCC-44 | 0.664 | 0.739 | 0.66 | 0.51 | 0.395 | 0.765 | 0.839 | 0.866 | 0.854 | 0.527 | 0.9 | 0.963 | 1.05 | 1.04 | 1.04 | 0.945 | 0.919 | 0.981 | 1.01 | 0.962
